The target in experiment [1] is T1, EGFR (Homo sapiens, UniProt P00533).
T1 construct: A skin cancer cell line, A431 (ATCC: CRL-1555), was used; endogenous in cells; host or cells: A431 (ATCC: CRL-1555)
Description: Prolongation study in A431 cells (EGFR phosphorylation inhibition). It counts as cell-based. The following applies: A-431, 1 μM for 4 hrs, then washed, EGF 100 ng/ml. As to the method:
A skin cancer cell line, A431 (ATCC: CRL-1555), was used to test the degrees of the inventive compounds in inhibiting EGFR's phosphorylation and the prolongation of ability to inhibit it thereof.
The cell line was incubated in a culture flask at 37° C. under 95% air and 5% CO2 using a culture medium containing DMEM, 10% FBS and 1% PS. When more than 90% of the total volume of the culture flask became filled with cells, the cultured cell solution was subject to secondary incubation and was poured to each well of a 6-well plate to the extent of 500,000 cells/well. After 24 hrs, the cells were separated from the solution, washed with PBS, and incubated in a culture medium containing DMEM, 0.1% FBS and 1% PS for 16 hrs. The compounds obtained in Examples 1, 17, 19 and 36, and Tarceva as EGFR phosphorylation inhibitors were each added to the cell-containing well to a concentration of 1 μM. After 4 hrs, the cells were separated from the solution, washed 4 times with PBS after every 0, 2, 4 and 8 hrs, and incubated in a culture medium containing DMEM, 0.1% FBS and 1% PS. […] Just before the completion of the reaction, the cultured cell solution was treated with a 100 ng/ml concentration of EGF (Sigma, Cat No. E9644) for 5 mins to induce the activation of EGFR. After the completion of the reaction, the well plate holding the cultured cells was stored at −70° C. In control groups, the replacement of the medium was performed instead of the addition of the EGFR phosphorylation inhibitor, wherein the induction of EGFR activation using EGF was made only in a positive control group and not made in a negative control group.
For Western blot and enzyme immune measuring (ELISA) methods, the well plate stored at −70° C. was allowed to melt to room temperature, and then protein was extracted from the cells in the well plate using a protein extract buffer. The extraction of the protein was performed as follows: 250 μl of the protein extract buffer (Phosphosafe extraction reagent, Calbiochem, Cat No. 71296-3) comprising protease inhibitor cocktail was added to each cell-containing well, which was stirred at room temperature for 5 mins. The cells were collected using a cell scraper and put in an 1.5 ml tube, which was centrifuged at a speed of 16,000×g for 5 mins. The upper layer thus obtained was separated, of which the protein content was determined by a protein assay kit (Bio-rad, Cat No. 500-0116). The protein extracted was diluted with PBS to a concentration of 0.8 mg/ml.
A human EGFR (py1173) immunoassay kit (Biosource, Cat No. KHR9071) was used in the enzyme immune measuring method. 100 μl of the sample which was diluted by 4 folds with a standard dilution buffer in a kit was added to a strip well, which was incubated at a 4° C. refrigerator overnight. The cultured cells was separated therefrom and washed 4 times with 200 μl of a washing buffer. 100 μl of the resulting primary antibody (anti-human EGFR [pY1173]) was put to each strip well, incubated at 37° C. for 1 hr, and washed 4 times with 200 μl of a washing buffer. The resulting secondary antibody (anti-rabbit IgG-HRP) was diluted by 100 folds with an HRP dilution buffer in a kit. 100 μl of the dilute was put to each strip well, incubated at 37° C. for 30 mins, and washed 4 times with 200 μl of the washing buffer. 100 μl of an HRP substrate in a kit was put to each strip well and incubated in a darkroom for 10 to 30 mins. 100 μl of a reaction stop solution was added thereto to terminate the reaction, and then, the absorbance at 450 nm was observed.
Electrophoresis and Western blot methods were conducted based on the conventional methods in the following: An LDS buffer was added to each sample, which was allowed to boil at 70° C. for 10 mins. 10 μl of the resulting solution was loaded to a 12-well gel (Nupage 4˜12% Bis-tris gel, Invitrogen), followed by 120 volt-electrophoresis in a buffer (MOPS electrophoresis buffer, Invitrogen, Cat No. NP0006-1) for 2 hrs. […]

In experiment [2] the test system is SW-620 colon/rectal cancer cell line. Put plainly: Cancer cell growth inhibition, SW-620 (SRB). The note with it: Homo sapiens, SW-620, 72 h, read-out: IC50 (nM) SW-620.
The test system of experiment [3] is SK-Br3 breast cancer cell line. Put plainly: Cancer cell growth inhibition, SK-Br3 (SRB). The note with it: Homo sapiens, SK-BR-3, 72 h, read-out: ID50 (nM) SK-Br3.
Experiment [4] concerns H1975 lung cancer cell line. Put plainly: Cancer cell growth inhibition, H1975 (celltiter). The following applies: Homo sapiens, NCI-H1975, 48 h, read-out: IC50 (nM) H1975.
Experiment [5] deals with A431 skin cancer cell line. Description: Cancer cell growth inhibition, A431 (SRB). The following applies: Homo sapiens, A-431, 72 h, read-out: ID50 (nM) A431.
Experiment [6] has as its target EGFR (EGFR type 1 kinase, Upstate) (Homo sapiens, UniProt P00533). Description: Inhibition of EGFR enzyme (fluorescence polarization kinase assay). In general terms: In fluorescence polarisation assays a small probe gives low polarisation when free and higher when bound to something large.
Description: 10 μl of an EGFR (EGFR type 1 kinase, Upstate, 10 ng/μl) was added to each well of a 96-well plate. […] The calculation and analysis of IC50 were carried out by using Microsoft Excel.
In experiment [7] the target is EGFR T790M kinase (Homo sapiens, UniProt P00533, T790M). Description: Inhibition of EGFR mutant enzyme (T790M).
Where [8] appears, read: 0 hr after washing, read-out: EGFR phosphorylation inhibition in A431 cell line (%) 0 hr Avg.
[9] abbreviates: 8 hrs after washing, read-out: EGFR phosphorylation inhibition in A431 cell line (%) 8 hrs Avg.
Setting [10] is: 24 hrs after washing, read-out: EGFR phosphorylation inhibition in A431 cell line (%) 24 hrs Avg.
The mark [11] stands for this setting: 48 hrs after washing, read-out: EGFR phosphorylation inhibition in A431 cell line (%) 48 hrs Avg.
Setting [12] is: read-out: IC50 (nM) EGFR, EGFR type 1 kinase, ATP 50 μM.
The mark [13] stands for this setting: read-out: IC50 (nM) T790M, EGFR T790M kinase.

Where two headings read alike, the source gives them in different places.

Sequence of EGFR (EGFR type 1 kinase, Upstate) (P00533 25-1210): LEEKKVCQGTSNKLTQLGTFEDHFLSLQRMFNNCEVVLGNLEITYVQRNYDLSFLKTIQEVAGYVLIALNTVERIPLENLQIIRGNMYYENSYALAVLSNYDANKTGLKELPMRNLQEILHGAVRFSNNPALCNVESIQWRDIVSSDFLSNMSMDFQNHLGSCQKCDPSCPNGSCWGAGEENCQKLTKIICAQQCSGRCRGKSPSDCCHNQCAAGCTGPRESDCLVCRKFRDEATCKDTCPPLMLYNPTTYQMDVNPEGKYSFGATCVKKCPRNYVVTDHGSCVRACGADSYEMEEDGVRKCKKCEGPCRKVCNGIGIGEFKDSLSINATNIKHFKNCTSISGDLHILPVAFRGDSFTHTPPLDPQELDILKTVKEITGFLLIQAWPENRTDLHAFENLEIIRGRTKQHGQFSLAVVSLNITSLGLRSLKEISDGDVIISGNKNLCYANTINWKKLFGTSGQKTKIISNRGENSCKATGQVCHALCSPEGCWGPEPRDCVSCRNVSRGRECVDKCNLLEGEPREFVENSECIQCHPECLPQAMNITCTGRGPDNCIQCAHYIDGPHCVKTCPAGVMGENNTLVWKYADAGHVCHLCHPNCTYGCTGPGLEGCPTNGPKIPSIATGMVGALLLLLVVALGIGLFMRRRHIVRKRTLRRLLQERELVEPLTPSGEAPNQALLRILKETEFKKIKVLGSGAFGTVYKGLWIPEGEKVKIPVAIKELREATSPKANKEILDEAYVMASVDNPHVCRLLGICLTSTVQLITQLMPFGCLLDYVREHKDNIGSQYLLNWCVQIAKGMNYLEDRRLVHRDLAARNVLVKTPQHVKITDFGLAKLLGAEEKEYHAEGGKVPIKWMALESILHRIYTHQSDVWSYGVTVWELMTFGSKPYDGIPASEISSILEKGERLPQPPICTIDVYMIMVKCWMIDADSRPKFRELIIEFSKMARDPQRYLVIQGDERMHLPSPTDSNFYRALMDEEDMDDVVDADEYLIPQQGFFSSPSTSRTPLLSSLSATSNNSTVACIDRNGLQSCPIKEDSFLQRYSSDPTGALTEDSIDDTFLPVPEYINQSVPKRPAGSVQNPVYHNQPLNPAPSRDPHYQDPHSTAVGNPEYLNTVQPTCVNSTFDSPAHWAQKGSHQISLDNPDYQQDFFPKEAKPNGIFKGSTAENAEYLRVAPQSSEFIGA
T1 sequence (P00533 25-1210): as above
Sequence of EGFR T790M kinase (P00533 25-1210 T790M): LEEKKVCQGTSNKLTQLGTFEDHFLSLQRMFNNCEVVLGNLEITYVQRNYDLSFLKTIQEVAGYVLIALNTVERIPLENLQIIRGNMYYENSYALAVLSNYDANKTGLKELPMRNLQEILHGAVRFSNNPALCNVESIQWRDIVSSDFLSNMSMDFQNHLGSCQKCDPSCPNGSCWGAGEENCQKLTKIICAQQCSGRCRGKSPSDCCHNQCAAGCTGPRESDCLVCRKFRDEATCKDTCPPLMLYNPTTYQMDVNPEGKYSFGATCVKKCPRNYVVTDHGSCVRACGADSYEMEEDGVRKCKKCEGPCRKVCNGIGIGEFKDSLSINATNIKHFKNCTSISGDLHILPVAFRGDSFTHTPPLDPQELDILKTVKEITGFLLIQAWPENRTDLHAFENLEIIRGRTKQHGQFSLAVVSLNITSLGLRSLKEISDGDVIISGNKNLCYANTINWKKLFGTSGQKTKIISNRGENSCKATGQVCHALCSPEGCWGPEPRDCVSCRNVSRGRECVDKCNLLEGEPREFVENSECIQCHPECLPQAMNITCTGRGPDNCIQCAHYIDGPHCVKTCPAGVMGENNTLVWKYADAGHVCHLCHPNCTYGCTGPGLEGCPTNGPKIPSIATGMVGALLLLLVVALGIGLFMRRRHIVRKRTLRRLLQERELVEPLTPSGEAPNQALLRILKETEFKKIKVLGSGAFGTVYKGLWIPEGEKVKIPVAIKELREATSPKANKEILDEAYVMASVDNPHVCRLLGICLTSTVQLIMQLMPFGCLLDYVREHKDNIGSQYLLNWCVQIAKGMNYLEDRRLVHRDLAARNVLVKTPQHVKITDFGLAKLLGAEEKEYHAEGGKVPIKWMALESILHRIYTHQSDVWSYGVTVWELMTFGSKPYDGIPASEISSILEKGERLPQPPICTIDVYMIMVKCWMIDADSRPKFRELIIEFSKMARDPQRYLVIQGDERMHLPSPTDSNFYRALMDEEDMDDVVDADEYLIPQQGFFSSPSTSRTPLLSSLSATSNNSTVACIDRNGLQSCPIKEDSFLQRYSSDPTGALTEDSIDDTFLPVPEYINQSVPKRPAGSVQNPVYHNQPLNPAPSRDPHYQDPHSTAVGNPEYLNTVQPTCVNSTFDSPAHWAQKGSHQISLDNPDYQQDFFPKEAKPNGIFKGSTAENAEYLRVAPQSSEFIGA

One may read the inhibition as the share of the control response that was lost under treatment. `C=CC(=O)N1CC[C@H](Oc2cc3c(Nc4ccc(F)c(Cl)c4F)ncnc3cc2OC)C1` [Example 1, 1-((3S)-3-(4-(3-chloro-2,4-difluorophenylamino)-7-methoxyquinazolin-6-yloxy)pyrrolidin-1-yl)prop-2-en-1-one]: the inhibition at 1 µM in experiment [1] (setting [8]) worked out at 71%; in experiment [1] (setting [9]), 71%; in experiment [1] (setting [10]) it was 73%; in experiment [1] (setting [11]), 42%. Further, the IC50 in experiment [2] is greater than 5000 nM; in experiment [3], 8 nM; in experiment [4] it was 80 nM; in experiment [5], 4 nM.

Turning to `C=CC(=O)N1CC[C@H](Oc2cc3c(Nc4ccc(Br)c(Cl)c4F)ncnc3cc2OC)C1` [Example 7, 1-((3S)-3-(4-(4-bromo-3-chloro-2-fluorophenylamino)-7-methoxyquinazolin-6-yloxy)pyrrolidin-1-yl)pro-2-pen-1-one], the IC50 was 10 nM in experiment [6] (setting [12]); greater than 5000 nM in experiment [2]; 8 nM in experiment [3]; 8 nM in experiment [7] (setting [13]); 55 nM in experiment [4]; 5 nM in experiment [5].

Regarding `C=CC(=O)N1CC[C@H](Oc2cc3c(Nc4ccc(OCc5ccccn5)c(Cl)c4)ncnc3cc2OC)C1` [Example 10, 1-((3S)-3-(4-(3-chloro-4-(pyridin-2-ylmethoxy)phenylamino)-7-methoxyquinazolin-6-yloxy)pyrrolidin-1-yl)pro-2-pen-1-one], the IC50 was 5 nM in experiment [6] (setting [12]); greater than 5000 nM in experiment [2]; 7 nM in experiment [3]; 10 nM in experiment [7] (setting [13]); 14 nM in experiment [5].

In the case of `C=CC(=O)N1CC[C@H](Oc2cc3c(N[C@H](C)c4ccccc4)ncnc3cc2OC)C1` [Example 11], the IC50 in experiment [6] (setting [12]) was 12 nM; in experiment [3] it was 13 nM; in experiment [7] (setting [13]) it was 27 nM; in experiment [4], 167 nM; in experiment [5], 8 nM.

Turning to `C=CC(=O)N1CC[C@H](Oc2ccc3ncnc(Nc4ccc(F)c(Cl)c4F)c3c2)C1` [Example 15, 1-((3S)-3-(4-(3-chloro-2,4-difluorophenylamino)quinazolin-6-yloxy)pyrrolidin-1-yl)pro-2-pen-1-one], the IC50 in experiment [6] (setting [12]) is 9 nM; in experiment [3] it was 25 nM; in experiment [7] (setting [13]), 54 nM; in experiment [4], 413 nM; in experiment [5], 5 nM.

With `C=CC(=O)N1CC[C@H](Oc2ccc3ncnc(Nc4ccc(OCc5cccc(F)c5)c(Cl)c4)c3c2)C1` [Example 16, 1-((3S)-3-(4-(3-chloro-4-(3-fluorobenzyloxy)phenylamino)quinazolin-6-yloxy)pyrrolidin-1-yl)pro-2-pen-1-one], the IC50 in experiment [6] (setting [12]) was 8 nM; in experiment [2], greater than 5000 nM; in experiment [3] it was 7 nM; in experiment [7] (setting [13]), 47 nM; in experiment [5] it was 15 nM.

Consider `C=CC(=O)N1CC(Oc2cc3c(N[C@H](C)c4ccccc4)ncnc3cc2OC)C1` [Example 22, (R)-1-(3-(7-methoxy-4-(1-phenylethylamino)quinazolin-6-yloxy)azetidin-1-yl)pro-2-pen-1-one], for which the IC50 worked out at 6 nM in experiment [6] (setting [12]); 1 nM in experiment [3]; 15 nM in experiment [7] (setting [13]); 156 nM in experiment [4]; 7 nM in experiment [5].

For `C=CC(=O)N1CC(Oc2cc3c(Nc4cccc(Cl)c4F)ncnc3cc2OC)C1` [Example 23, 1-(3-(4-(3-chloro-2-fluorophenylamino)-7-methoxyquinazolin-6-yloxy)azetidin-1-yl)pro-2-pen-1-one], the IC50 in experiment [6] (setting [12]) was 6 nM; in experiment [2], greater than 5000 nM; in experiment [3], 0.5 nM; in experiment [7] (setting [13]) it was 4 nM; in experiment [4] it was 9 nM; in experiment [5], 1.6 nM.

As for `C=CC(=O)N1CC(Oc2cc3c(Nc4cccc(Cl)c4)ncnc3cc2OC)C1` [Example 26, 1-(3-(4-(3-chlorophenylamino)-7-methoxyquinazolin-6-yloxy)azetidin-1-yl)pro-2-pen-1-one], the IC50 in experiment [6] (setting [12]) is 1.6 nM; in experiment [2], greater than 5000 nM; in experiment [3] it was 6 nM; in experiment [7] (setting [13]) it was 3.3 nM; in experiment [4] it was 17.7 nM; in experiment [5], 1.6 nM.

Turning to `C=CC(=O)N1CCC(Oc2cc3c(Nc4cccc(Cl)c4F)ncnc3cc2OC)CC1` [Example 34, 1-(4-(4-(3-chloro-2-fluorophenylamino)-7-methoxyquinazolin-6-yloxy)piperidin-1-yl)pro-2-pen-1-one], the IC50 in experiment [6] (setting [12]) is 6 nM; in experiment [2], greater than 5000 nM; in experiment [3], 0.2 nM; in experiment [7] (setting [13]) it was 5 nM; in experiment [4] it was 22 nM; in experiment [5] it was 2 nM.

On to `C=CC(=O)N1CCC(Oc2cc3c(Nc4ccc(Cl)c(Cl)c4F)ncnc3cc2OC)CC1` [Example 36, 1-(4-(4-(3,4-dichloro-2-fluorophenylamino)-7-methoxyquinazolin-6-yloxy)piperidin-1-yl)pro-2-pen-1-one], for which the inhibition at 1 µM in experiment [1] (setting [8]) turned out to be 90%; in experiment [1] (setting [9]), 89%; in experiment [1] (setting [10]) it was 81%; in experiment [1] (setting [11]), 41%; in experiment [1] (72 hrs after washing, read-out: EGFR phosphorylation inhibition in A431 cell line (%) 72 hrs Avg.), 44%. Further, the figures for the IC50 in experiment [2] and in experiment [3] were greater than 5000 nM and 0.3 nM, respectively.

Turning to `C=CC(=O)N1CCC(Oc2ccc3ncnc(Nc4ccc(F)c(Cl)c4F)c3c2)CC1` [Example 71, 1-(4-(4-(3-chloro-2,4-difluorophenylamino)quinazolin-6-yloxy)piperidin-1-yl)pro-2-pen-1-one], the IC50 in experiment [6] worked out at 2.7 nM; in experiment [3] it was 5 nM; in experiment [7] it was 24 nM; in experiment [4], 70 nM; in experiment [5] it was 8 nM.

The values are drawn from patent US8188102B2, “Amide derivative for inhibiting the growth of cancer cells” (Hanmi Holdings Co., Ltd., priority 2007, dated 2012).
